Measurements reported in patent US20160340286A1, “CLOSTRUBINS” (LEIBNIZ-INSTITUT FÜR NATURSTOFF-FORSCHUNG UND …, priority 2014, published 2016).
Values after ≈ are worked out from the molar mass of the structure shown. Where two headings read alike, the source gives them in different places.

Columns and labels:
Type in all cases: cell-based
[1] = test system: Escherichia coli; test: standardized antibiotic assay, MIC, Ec; conditions: for MIC: Escherichia coli (Gram-negative)
Method: (§1) The activity and more specifically the bioactivity of the compounds according to the present invention can be assessed using appropriate assays known to those skilled in the art, e.g. in vitro or in vivo assays. For instance, the antimicrobial activity may be determined using a standardized antibiotic assay^[1], and the antiproliferative and/or cytotoxic activity may be determined via a standardized assay as described in reference.
(§2) The antibiotic activity of clostrubin A was tested using a standardized antibiotic assay^[1]. […]. A similar antimicrobial activity as against MRSA was observed against Mycobacterium smegmatis (M smegmatis), Mycobacterium aurum (M aurum), Mycobacterium vaccae (M vaccae) and Mycobacterium fortuitum (M fortuitum)—see, Table 3.

[2] = test system: Bs; test: standardized antibiotic assay, MIC, Bs
Method: as §1, §2

[3] = test system: methicillin-resistant Staphylococcus aureus (MRSA); test: standardized antibiotic assay, MIC, MRSA
Method: as §1, §2

[4] = test system: vancomycin-resistant enterococci (VRE); test: standardized antibiotic assay, MIC, VRE; conditions: Enterococcus
Method: as §1, §2

[5] = test system: Mycobacterium aurum; test: anti-mycobacterial activity, MIC; conditions: Mycolicibacterium aurum
Method: as §1, §2

[6] = test system: Mycobacterium fortuitum; test: anti-mycobacterial activity, MIC; conditions: Mycolicibacterium fortuitum
Method: as §1, §2

[7] = test system: Mycobacterium smegmatis; test: anti-mycobacterial activity, MIC; conditions: Mycolicibacterium smegmatis
Method: as §1, §2

[8] = test system: Mycobacterium vaccae; test: anti-mycobacterial activity, MIC; conditions: Mycolicibacterium vaccae
Method: as §1, §2

[9] = test system: HUVEC; test: antiproliferative effect, standardized assay
Excerpt: as §1
(§3) Antiproliferative and cytotoxic activity of clostrubin A was tested in a standardized assay^[2].

[10] = test system: K-562; test: antiproliferative effect, standardized assay; conditions: Homo sapiens, K562
Excerpt: as §1, §3

[11] = cytotoxicity, standardized assay; conditions: human, HeLa cells
Excerpt: as §1, §3

[12] = test system: HeLa; test: cytotoxicity, standardized assay; conditions: summary of Table 4 (HeLa)
Excerpt: as §1, §3

[13] = test system: Bacillus pumilus; test: microbe, parasite or virus in culture; conditions: potato soft rot pathogen
Method: (§4) The antimicrobial activity of clostrubin A (1) and clostrubin B (2) against the serious potato pathogens Bacillus pumilus (causing potato soft rot), Clavibacter michiganensis ssp. sepedonicus (causing potato ring rot), and Streptomyces scabies (causing potato scab) was tested.

[14] = test system: Streptomyces scabies; test: microbe, parasite or virus in culture; conditions: Streptomyces scabiei; potato scab pathogen
Method: as §4

[15] = test system: Clavibacter michiganensis ssp. sepedonicus; test: activity against potato pathogens, MIC; conditions: read-out: MIC Clavibacter michiganensis ssp. sepedonicus

Compound	MIC [1]	antibiotic activity against Escherichia coli (in words) ([1]; Gram-negative organism)	MIC [2]	MIC ([3]; read-out: MIC MRSA)	MIC ([3]; read-out: minimum inhibitory concentration (MIC) MRSA)	MIC ([4]; read-out: MIC VRE)	MIC ([4]; read-out: minimum inhibitory concentration (MIC) VRE)	MIC [5]	MIC [6]	MIC [7]	MIC [8]	GI50 ([9]; Homo sapiens, HUVEC)	antiproliferative activity (in words) ([9]; summary of Table 4 (HUVEC, K-562))	GI50 [10]	CC50 [11]	cytotoxic activity (in words) [12]	MIC [13]	MIC [14]	MIC [15]
CC(=O)c1ccc2c(c1O)c(O)c1c3c(c(O)cc(C)c32)C(=O)c2c(O)cc(C)cc2-1 [Compound 1, clostrubin A]	> 60 µM	ineffective	0.075 µM (≈ 0.0311 µg/mL)	0.12 µM	0.05 mg/L	0.97 µM	0.4 mg/L	0.12 µM (≈ 0.0497 µg/mL)	0.12 µM (≈ 0.0497 µg/mL)	0.48 µM (≈ 0.199 µg/mL)	0.12 µM (≈ 0.0497 µg/mL)	1.2 µM	moderate	2.66 µM	1.69 µM	moderate	0.047 µM (≈ 0.0195 µg/mL)	0.0947 µM (≈ 0.0392 µg/mL)	0.0947 µM (≈ 0.0392 µg/mL)
O=C(O)c1cn(C2CC2)c2cc(N3CCNCC3)c(F)cc2c1=O [Cip, ciprofloxacin, reference compound]	0.01 µM (≈ 0.00331 µg/mL)		0.08 µM (≈ 0.0265 µg/mL)	37 µM		2.3 µM		0.3 µM (≈ 0.0994 µg/mL)	0.6 µM (≈ 0.199 µg/mL)	4.71 µM (≈ 1.56 µg/mL)	1.2 µM (≈ 0.398 µg/mL)								
COCC(O)C(O)C(O)C(=O)c1c(C)cc2c(c1O)C(=O)c1c(O)cc(C)c3c1c-2c(O)c1c(O)c(C(C)=O)ccc13 (stereo not drawn) [Compound 2, clostrubin B]																	0.542 µM (≈ 0.312 µg/mL)	0.271 µM (≈ 0.156 µg/mL)	0.542 µM (≈ 0.312 µg/mL)
